Measured values published in US8207154B2, “Catatonic bacteriochlorophyll derivatives” (Yeda Research and Development Co., Ltd., priority 2005, dated 2012).
Where two headings read alike, the source gives them in different places.

Assays:
St. albus = assay: Phototoxicity on Gram-positive bacteria, colony counting; format: cell-based; details: 1 h incubation, illuminated 15 min at 70 mW/cm^2; read-out: Kd (phototoxicity)
Description: (§1) (ii) Bacterial cultures. Bacteria of strains St. albus and E. coli XL-1 were cultured in liquid LB medium (E. coli in LB containing 12.5 μg tetracyclin/ml) to a final density of OD600 nm=0.5-0.9 (1 OD=8×10^8 bacteria/ml). The bacteria were spun down (4000×g, 5 min.) and resuspended in PBS.
(§2) (b) Bacterial. To determine the photodynamic efficacy, bacteria were diluted to aliquots of 300 μl containing about 10^7 bacteria, and incubated with increasing concentrations of sensitizer in plastic test tubes in the dark for 1 h at room temperature, and then illuminated at 70 mW/cm^2 for 15 min. Samples of the treated bacteria cultures were subsequently plated at different dilutions (50-200 bacteria/plate) on LB agar and cultured for 24 h at 37° C. for determination of bacterial survival by colony counting. Triplicate determinations were conducted and representative experiments are shown.
(§3) The phototoxicity of positively-charged compound 5 was tested on Gram-positive St. albus and Gram-negative E. coli bacteria in comparison to the negatively-charged Pd 3^1-oxo-15-methoxycarbonylmethyl-Rhodobacteriochlorin 13^1-(2-sulfoethyl)amide dipotassium salt (described in PCT/IL03/00973). Bacteria were incubated with increasing concentrations of the sensitizers for 1 h and illuminated or kept in the dark. […] Gram-positive bacteria St. albus, was 100 times more sensitive to compound 5 than Gram-negative E. coli. No phototoxicity was observed when bacteria were incubated and treated with the same sensitizers' concentration range without illumination (dark controls).

E. coli = assay: Phototoxicity on Gram-negative bacteria, colony counting; format: cell-based, E. coli XL-1; details: 1 h incubation, illuminated
Description: as §1, §2, §3

[1] = Octanol/water partition ratio; format: physicochemical
Text: Optical absorption in water, λ (relative absorption): 753 (1.00), 519 (0.30), 354 (1.25) nm. Octanol/water partition ratio is 40/60. ESI-MS (+): 413.62 ([M-2×citrate]/2). Octanol/water partition ratio is 50/50. ESI-MS (+): 455.89 ([M-2×citrate]/2). Octanol/water partition ratio is 75/25.

H5V cells = assay: Phototoxicity assay (PDT efficacy at two incubation times), neutral red survival; format: cell-based, mouse; details: then 10 min illumination, 12 J/cm^2
Description: H5V cells (40×10^3/well) were cultured in 96-well plates for 24 h to ˜80% confluence. To determine phototoxicity, the culture medium was replaced with 100 μl/well medium, in the absence or presence of 10^−8 to 10^−6 M sensitizer, and incubated in the dark for 15 min or 3 h in the culture incubator. The plates (PDT group) were then placed in the light field at room temperature and illuminated from the bottom for 10 min (800>λ>650 nm, 12 J/cm^2). After illumination, the medium was changed to fresh culture medium. The cultures were then placed in the culture incubator and cell survival was determined 24 h later, using the neutral red survival assay described below.
Following 24 h post PDT the culture medium in the wells was replaced with 100 μl fresh medium containing 40 μg/ml neutral red. The plate was incubated for 1.5 h in a dark culture incubator. The medium was aspirated and the cells washed with 100 μl of solution containing 1% CaCl2 and 0.5% formaldehyde, which removes the unincorporated dye and fixes the cells to the substratum. The dye was then extracted from the cells into the supernatant upon addition of 100 μl 1% glacial acetic acid in 50% ethanol. After 1-2 min at room temperature, the optical density of the wells was determined in a microplate spectrophotometer using a 570 nm filter. After subtraction of assay blanks, net optical density was computed as the average value of triplicate determinations. Cell survival was calculated as the percent of the dye accumulated in the untreated control. To determine cell survival data was plotted against sensitizer concentration. These curves were then used to calculated LD50 values.
Following synthesis, the compounds described in the Examples 23 to 75 above were purified, divided into equal aliquots and lyophilized for storage (desiccated at −20° C.). The exact material content was determined by HPLC-diode array detection, and the PDT efficacy was evaluated at two incubation times as described in the experimental section.

[2] = 15 min incubation in the dark, read-out: IC50 15 min
[3] = 3 h incubation in the dark, read-out: IC50 3 hours

Row | Compound | phototoxic killing concentration (St. albus) | effectiveness against Gram-negative E. coli (E. coli) | Octanol/water partition ratio [1] | IC50 (H5V cells; [2]) | IC50 (H5V cells; [3])
1 | CCC1C2=Cc3c(C)c(C(=O)NCCS(=O)(=O)[O-])c4[n]3[Pd][n]3c(c(C)c(C(C)=O)c3=CC(=N2)C1C)=CC1=NC(=C4CC(=O)OC)C(CCC(=O)[O-])C1C.[K+].[K+] (stereo not drawn) [Pd 3^1-oxo-15-methoxycarbonylmethyl-Rhodobacteriochlorin 13^1-(2-sulfoethyl)amide dipotassium salt, reference compound] | 300 nM | not against Gram-negative E. coli | – | – | –
2 | 3^1-Oxo-15-methoxycarbonylmethyl-Rhodobacteriochlorin 13^1,17^3-di(3-N^3-trimethylammoniumpropyl)amide dicitrate salt [Compound 7] | – | – | 50/50 | – | –
3 | CC(=O)O.CC[C@H]1C2=NC(=Cc3c(C(C)=O)c(C)c4[n]3[Pd][n]3c(c(C)c(C(=O)NCCN(C)C)c3=C(CC(=O)OC)C3=NC(=C4)[C@@H](C)[C@@H]3CCC(=O)NCC(C)O)=C2)[C@@H]1C (stereo partly drawn) [Compound 67, Palladium 3^1-oxo-15-methoxycarbonylmethyl-Rhodobacteriochlorin-13^1-(2-N^2-dimethylaminoethyl)amide-17^3-(2-hydroxypropyl)amide] | – | – | – | 500 nM | 180 nM
4 | Palladium 3^1-oxo-15-methoxycarbonylmethyl-Rhodobacteriochlorin-13^1-(2-N^3-trimethylammoniumethyl)amide acetate (salt) [Compound 24] | – | – | – | 2400 nM | 1200 nM
5 | CCC1C2=Cc3c(C)c(C(=O)NCCNc4ccccn4)c4[n]3[Pd][n]3c(c(C)c(C(C)=O)c3=CC(=N2)C1C)=CC1=NC(=C4CC(=O)OC)C(CCC(=O)NCC(O)CO)C1C (stereo not drawn) [Compound 57, Palladium 3^1-oxo-15-methoxycarbonylmethyl-Rhodobacteriochlorin-13^1-(2-N-(2′-pyridyl)aminoethyl)amide-17^3-(2,3-dihydroxypropyl)amide] | – | – | – | 1330 nM | 600 nM
6 | CC[C@H]1C2=NC(=Cc3c(C(C)=O)c(C)c4[n]3[Pd][n]3c(c(C)c(C(=O)NCC(O)CO)c3=C(CC(=O)OC)C3=NC(=C4)[C@@H](C)[C@@H]3CCC(=O)NCCN(CCN)CCN)=C2)[C@@H]1C (stereo partly drawn) [Compound 58, Palladium 3^1-oxo-15-methoxycarbonylmethyl-Rhodobacteriochlorin-13^1-(2,3-dihydroxypropyl)amide-17^3-([2-bis(2-aminoethyl)amino]ethyl)amide] | – | – | – | 640 nM | 370 nM
7 | CC[C@H]1C2=NC(=Cc3c(C(C)=O)c(C)c4[n]3[Pd][n]3c(c(C)c(C(=O)NCC(O)CO)c3=C(CC(=O)OC)C3=NC(=C4)[C@@H](C)[C@@H]3CCC(=O)NCCN(C)C)=C2)[C@@H]1C (stereo partly drawn) [Compound 49, Palladium 3^1-oxo-15-methoxycarbonylmethyl-Rhodobacteriochlorin-13^1-(2,3-dihydroxypropyl)amide-17^3-(2-N^2-dimethylaminoethyl)amide] | – | – | – | 1150 nM | 570 nM
8 | CC[C@H]1C2=NC(=Cc3c(C(C)=O)c(C)c4[n]3[Pd][n]3c(c(C)c(C(=O)NCCN5CCNCC5)c3=C(CC(=O)OC)C3=NC(=C4)[C@@H](C)[C@@H]3CCC(=O)O)=C2)[C@@H]1C [Compound 30, Palladium 3^1-oxo-15-methoxycarbonylmethyl-Rhodobacteriochlorin-13^1-(2-piperazino-N-ethyl)amide] | – | – | – | 1700 nM | 610 nM
9 | CC[C@H]1C2=NC(=Cc3c(C(C)=O)c(C)c4[n]3[Pd][n]3c(c(C)c(C(=O)NCCN(CCN)CCN)c3=C(CC(=O)OC)C3=NC(=C4)[C@@H](C)[C@@H]3CCC(=O)O)=C2)[C@@H]1C [Compound 28, Palladium 3^1-oxo-15-methoxycarbonylmethyl-Rhodobacteriochlorin-13^1-([2-bis(2-aminoethyl)amino]ethyl)amide] | – | – | – | 1300 nM | 380 nM
10 | CC[C@H]1C2=NC(=Cc3c(C(C)=O)c(C)c4[n]3[Pd][n]3c(c(C)c(C(=O)NCCCN)c3=C(CC(=O)OC)C3=NC(=C4)[C@@H](C)[C@@H]3CCC(=O)NCCCN)=C2)[C@@H]1C [Compound 34, Palladium 3^1-oxo-15-methoxycarbonylmethyl-Rhodobacteriochlorin-13^1, 17^3-di(3-aminopropyl)amide] | – | – | – | 480 nM | 200 nM
11 | CC(=O)O.CC[C@H]1C2=NC(=Cc3c(C(C)=O)c(C)c4[n]3[Pd][n]3c(c(C)c(C(=O)NCCN(C)C)c3=C(CC(=O)OC)C3=NC(=C4)[C@@H](C)[C@@H]3CCC(=O)NC[C@H](C)O)=C2)[C@@H]1C [Compound 69, Palladium 3^1-oxo-15-methoxycarbonylmethyl-Rhodobacteriochlorin-13^1-(2-N^2-dimethylaminoethyl)amide-17^3-((S)-2-hydroxypropyl)amide] | – | – | – | 500 nM | 160 nM
